Read-outs that look alike come from different tables or passages of the source.
How the values were obtained:
AuroraA-TPX2 = biological target: T1, AuroraA-TPX2 (Homo sapiens, UniProt O14965); test: AuroraA-TPX2 Homogeneous Time Resolved Fluorescent (HTRF) kinase assay; assay type: biochemical; conditions: average; read-out: AurA_IC50_IP (uM Avg)
T1 construct: 20 μL of AuroraA-TPX2 KD GST for a final volume of about 41 μL; GST
T1 sequence (O14965 133-383 limits assumed): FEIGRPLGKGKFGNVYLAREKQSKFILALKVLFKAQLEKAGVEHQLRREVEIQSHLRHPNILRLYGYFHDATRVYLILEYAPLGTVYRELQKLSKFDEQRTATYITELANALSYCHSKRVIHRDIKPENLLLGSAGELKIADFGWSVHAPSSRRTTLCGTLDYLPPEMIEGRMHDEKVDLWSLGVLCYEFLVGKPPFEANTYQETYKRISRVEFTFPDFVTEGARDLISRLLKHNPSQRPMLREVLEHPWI
T1 sequence (Q9ULW0 1-43 partner limits assumed): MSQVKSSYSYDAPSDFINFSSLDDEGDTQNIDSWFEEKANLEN
Experimental: AuroraA-TPX2-Homogeneous Time Resolved Fluorescent (HTRF) Kinase Assay:
The Aurora-A HTRF assay begins with Aurora-A in the presence of ATP phosphorylating the biotinylated peptide PLK. The reaction incubates for about 120 min. Detection reagents are added to quench the reaction. These agents stop the reaction by diluting out the enzyme and chelating the metals due to the presence of EDTA. After addition, the assay is incubated overnight to allow the detection reagents to equilibrate.
The AuroraA HTRF assay comprises 1 μL of compound in 100% DMSO, 20 μL of ATP and biotinylated PLK, and 20 μL of AuroraA-TPX2 KD GST for a final volume of about 41 μL. The final concentration of PLK is about 1 μM. […] Buffer conditions are as follows: 60 mM HEPES pH 7.5, 25 mM NaCl, 10 mM MgCl, 2 mM DTT, 0.05% BSA.
(§1) The assay is quenched and stopped with 160 μL of detection reagent. Detection reagents are as follows: Buffer made of 50 mM Tris, pH 7.5, 100 mM NaCl, 3 mM EDTA, 0.05% BSA, 0.1% Tween20. Added to this buffer prior to reading is Steptavidin allophycocyanin (SA-APC) at a final conc in the assay of 0.0005 mg/mL, and europilated anti-phosphoPLK Ab (Eu-anti-PLK) at a final conc of 0.02 nM.
The assay plate is read in either a Discovery or a RubyStar. The eu-anti-PLK is excited at 320 nm and emits at 615 nm to excite the SA-APC which in turn emits at 655 nm.

AuroraB = biological target: T2, AuroraB (Homo sapiens, UniProt Q96GD4); test: AuroraB Homogeneous Time Resolved Fluorescent (HTRF) kinase assay; assay type: biochemical
T2 construct: 20 μL of AuroraB FL H is for a final volume of 41 μL; His
T2 sequence (Q96GD4 whole entry): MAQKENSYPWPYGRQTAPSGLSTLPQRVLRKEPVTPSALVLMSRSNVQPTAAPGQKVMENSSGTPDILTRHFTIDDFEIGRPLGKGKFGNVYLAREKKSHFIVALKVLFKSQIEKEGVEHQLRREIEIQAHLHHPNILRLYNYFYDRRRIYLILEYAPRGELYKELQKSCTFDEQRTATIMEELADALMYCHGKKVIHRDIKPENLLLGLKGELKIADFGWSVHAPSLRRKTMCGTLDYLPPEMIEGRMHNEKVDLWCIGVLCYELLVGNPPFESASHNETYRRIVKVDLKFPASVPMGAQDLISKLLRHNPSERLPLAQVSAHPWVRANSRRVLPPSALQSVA
Experimental: AuroraB-Homogeneous Time Resolved Fluorescent (HTRF) Kinase Assay:
The AuroraB HTRF assay begins with AuroraB in the presence of ATP phosphorylating the biotinylated peptide Histone H3. The reaction incubates for about 90 min. the reaction is quenched by addition of detection reagents, which stop the reaction by diluting out the enzyme and chelating the metals due to the presence of EDTA. After addition, the assay is incubated for about 60 min to allow detection reagents to equilibrate.
The AuroraB HTRF assay comprises 1 μL of compound in 100% DMSO, 20 μL of ATP and biotinylated Histone H3, and 20 μL of AuroraB FL H is for a final volume of 41 μL. The final concentration of Histone H3 is 0.1 μM. […] Buffer conditions are as follows: 50 mM HEPES pH 7.5, 5 mM NaCl, 0.5 mM MgCl, 0.5 mM MnCl, 2 mM DTT, 0.05% BSA.
as §1, with “0.001” for “0.0005”, “anti-phosphoHistoneH3” for “anti-phosphoPLK”, “(Eu-anti-HisH3)” for “(Eu-anti-PLK)”, “0.064” for “0.02”
The assay plate is read in either a Discovery or a RubyStar. The eu-anti-HisH3 is excited at 320 nm and emits at 615 nm to excite the SA-APC which in turn emits at 655 nm.

[1] = average, read-out: AurB_IC50_IP (uM Avg)

Compound	IC50 (AuroraA-TPX2) [µM]	IC50 (AuroraB; [1]) [µM]	IC50 (AuroraB; given as class symbol, read-out: AurB_IC50_IP (class symbol)) [µM]
COc1cnc2c(Oc3ccc(Nc4nnc(C#CC(C)(C)C)c5ccccc45)cc3)ccnc2c1 [Example 31, 4-(3,3-dimethylbut-1-ynyl)-N-(4-(7-methoxy-1,5-naphthyridin-4-yloxy)phenyl)phthalazin-1-amine]	0.033	0.008	
COc1cnc2c(Oc3ccc(Nc4nnc(N5CCCCCC5)c5ccccc45)cc3)ccnc2c1 [Example 32, 4-(azepan-1-yl)-N-(4-(7-methoxy-1,5-naphthyridin-4-yloxy)phenyl)phthalazin-1-amine]	0.016	0.009	
Clc1ccc(-c2nnc(Nc3ccc(Sc4ccnc5cccnc45)cc3)c3ccccc23)cc1 [Example 33, N-(4-(1,5-naphthyridin-4-ylthio)phenyl)-4-(4-chlorophenyl)phthalazin-1-amine]	0.022	0.003	
COc1cnc2c(Nc3cnc(Nc4nnc(-c5ccccc5)c5ccccc45)nc3)ccnc2c1 [Example 36, N^5-(7-Methoxy-1,5-naphthyridin-4-yl)-N^2-(4-phenylphthalazin-1-yl)pyrimidine-2,5-diamine]	0.038	0.004	
COc1ccc2c(Oc3ccc(Nc4nnc(-c5ccc(C(F)(F)F)cc5)c5ccccc45)cc3)c(F)cnc2c1 [Example 39, N-(4-(3-fluoro-7-methoxyquinolin-4-yloxy)phenyl)-4-(4-(trifluoromethyl)phenyl) phthalazin-1-amine]		1	
COc1cnc2c(Nc3ccc(Nc4nnc(-c5ccccc5)c5ccccc45)cc3)ccnc2c1 [Example 40, N^1-(7-methoxy-1,5-naphthyridin-4-yl)-N^4-(4-phenylphthalazin-1-yl)benzene-1,4-diamine]	0.044	0.007	
COc1cnc2c(Oc3ccc(Nc4nnc(-c5ccccc5)c5ccccc45)cn3)ccnc2c1 [Example 41, N-(6-(7-methoxy-1,5-naphthyridin-4-yloxy)pyridin-3-yl)-4-phenylphthalazin-1-amine]	0.079	0.009	
c1ccc(-c2nnc(Nc3ccc(Oc4ccnc5cc(N6CCOCC6)ccc45)cc3)c3ccccc23)cc1 [Example 42, N-(4-(7-Morpholinoquinolin-4-yloxy)phenyl)-4-phenylphthalazin-1-amine]	0.011	0.002	
CC(=O)Nc1ccc2nccc(Oc3ccc(Nc4nnc(-c5ccccc5)c5ccccc45)cc3)c2c1 [Example 43, N-(4-(4-(4-Phenylphthalazin-1-ylamino)phenoxy)quinolin-6-yl)acetamide]	0.112	0.008	
N#Cc1ccc2c(Oc3ccc(Nc4nnc(-c5ccccc5)c5ccccc45)cn3)ccnc2c1 [compound 174, 4-(5-(4-phenylphthalazin-1-ylamino)pyridin-2-yloxy)quinoline-7-carbonitrile]		5	
COc1cc2nncc(Oc3ccc(Nc4nnc(-c5ccc(Cl)cc5)c5ccccc45)cc3)c2cc1OC [compound 282, N-(4-((6,7-bis(methyloxy)-4-cinnolinyl)oxy)phenyl)-4-(4-chlorophenyl)-1-phthalazinamine]		0.189	
Fc1cc(F)c2c(Sc3ccc(Nc4nnc(-c5ccccc5)c5ccccc45)cc3)ccnc2c1 [compound 295, N-(4-((5,7-difluoro-4-quinolinyl)thio)phenyl)-4-phenyl-1-phthalazinamine]			< 0.1
Fc1cc(F)c2c(Sc3ccc(Nc4nnc(-c5ccccc5)c5ccccc45)cc3)ccnc2c1 [compound 311, N-(4-((5,7-difluoro-4-quinolinyl)thio)phenyl)-4-phenyl-1-phthalazinamine]		0.093	
Clc1ccc(-c2nnc(Nc3ccc(Sc4ccnc5ccccc45)cc3)c3ccccc23)cc1 [compound 333, 4-(4-chlorophenyl)-N-(4-(quinolin-4-ylthio)phenyl)phthalazin-1-amine]		0.036	
Clc1ccc(-c2nnc(Nc3ccc(CN4CCOc5ccccc54)cc3)c3ccccc23)cc1 [compound 349, 4-(4-chlorophenyl)-N-(4-((2,3-dihydrobenzo[b][1,4]oxazin-4-yl)methyl)phenyl)phthalazin-1-amine]		0.045	
CNC(=O)c1cc(Sc2ccc(Nc3nnc(-c4ccc(Cl)cc4)c4ccccc34)cc2)ccn1 [compound 360, 4-(4-(4-(4-chlorophenyl)phthalazin-1-ylamino)phenylthio)-N-methylpicolinamide]		0.345	
Clc1ccc(-c2nnc(Nc3ccc(Oc4cnnc5ccc(Br)cc45)cc3)c3ccccc23)cc1 [compound 369, N-(4-(6-bromocinnolin-4-yloxy)phenyl)-4-(4-chlorophenyl)phthalazin-1-amine]		3	

Further lines, results first:

IC50 (AuroraA-TPX2) [µM]	IC50 (AuroraB; [1]) [µM]	IC50 (AuroraB; given as class symbol, read-out: AurB_IC50_IP (class symbol)) [µM]	Compound
0.139	0.018		COc1cnc2c(Oc3ccc(Nc4nnc(-c5cccc(C#N)c5)c5ccccc45)cc3)ccnc2c1 [Example 29, 3-(4-(4-(7-methoxy-1,5-naphthyridin-4-yloxy)phenylamino)phthalazin-1-yl)benzonitrile]
1.39			COc1cnc2c(Oc3ccc(Nc4nnc(-c5nccn5C)c5ccccc45)cc3)ccnc2c1 [Example 30, N-(4-(7-methoxy-1,5-naphthyridin-4-yloxy)phenyl)-4-(1-methyl-1H-imidazol-2-yl)phthalazin-1-amine]
0.02	0.004		COc1ccc(-c2nnc(Nc3ccc(Oc4ccnc5cc(OC)cnc45)cc3)c3ccccc23)cc1 [Example 37, N-(4-(7-methoxy-1,5-naphthyridin-4-yloxy)phenyl)-4-(4-methoxyphenyl)phthalazin-1-amine]
0.023	0.017		COc1cnc2c(Oc3ccc(Nc4nnc(-c5ccc(C(C)(C)C)cc5)c5ccccc45)cc3)ccnc2c1 [Example 38, 4-(4-tert-butylphenyl)-N-(4-(7-methoxy-1,5-naphthyridin-4-yloxy)phenyl)phthalazin-1-amine]
0.034			COc1cnc2c(Oc3ccc(Nc4nnc(-c5cccc(N6CCCCC6)c5)c5ccccc45)cc3)ccnc2c1 [compound 197, N-(4-((7-(methyloxy)-1,5-naphthyridin-4-yl)oxy)phenyl)-4-(3-(1-piperidinyl)phenyl)-1-phthalazinamine]
0.005			Cc1ccc(-c2nnc(Nc3ccc(Oc4ccnc5cc(-c6cncn6C)sc45)cc3)c3ccccc23)nc1 [compound 255, N-(4-((2-(1-methyl-1H-imidazol-5-yl)thieno[3,2-b]pyridin-7-yl)oxy)phenyl)-4-(5-methyl-2-pyridinyl)-1-phthalazinamine]
0.011			Cn1cncc1-c1cc2nccc(Oc3ccc(Nc4nnc(-c5ccc(Cl)cc5)c5ccccc45)cn3)c2s1 [compound 267, 4-(4-chlorophenyl)-N-(6-((2-(1-methyl-1H-imidazol-5-yl)thieno[3,2-b]pyridin-7-yl)oxy)-3-pyridinyl)-1-phthalazinamine]
	0.07		Cc1noc(-c2cc3nccc(Sc4ccc(Nc5nnc(-c6ccccc6)c6ccccc56)cc4)c3s2)n1 [compound 303, N-(4-((2-(3-methyl-1,2,4-oxadiazol-5-yl)thieno[3,2-b]pyridin-7-yl)thio)phenyl)-4-phenyl-1-phthalazinamine]
	0.07		Cc1noc(-c2cc3nccc(Sc4ccc(Nc5nnc(-c6ccccc6)c6ccccc56)cc4)c3s2)n1 [compound 318, N-(4-((2-(3-methyl-1,2,4-oxadiazol-5-yl)thieno[3,2-b]pyridin-7-yl)thio)phenyl)-4-phenyl-1-phthalazinamine]

Reference: patent publication US8557816B2, “Aurora kinase modulators and method of use” (Amgen Inc., priority 2007, dated 2013)
